Data on 27 compounds can be found in patent US20150072969A1, “PHENYL ALKANOIC ACID DERIVATIVES AS GPR AGONISTS” (PIRAMAL ENTERPRISES LIMITED, priority 2012, published 2015).

pEC50: −log10 of the molar value. Some results are limits rather than exact numbers.

This assay addresses T1, human GPR40 (Homo sapiens, UniProt O14842).
T1 construct: expressed in transfected cells
Briefly: Inositol phosphate accumulation assay in FFAR1 (GPR40) CHOK1 clone. Type of assay: cell-based. Particulars: GPR40 agonist activity; intracellular inositol phosphate release in CHOK1 cells stably expressing recombinant human GPR40; 1 h incubation at 37° C. The method, then:
The inositol phosphate accumulation assay was performed to characterise the GPR40 agonist activity of the compounds of the present invention.
The assay was carried out in accordance with the method substantially as described in Diabetes, 2008, 57(8):2211-2219 and PLoS One, 2011, 6(11):e27270.
A stable FFAR1 (GPR40) CHOK1 clone was used to determine the GPR40 agonist activity of the test compounds (compounds of the present invention synthesized in the above Examples). The stable FFAR1 (GPR40) CHOK1 clone expressing recombinant human GPR40 was generated according to the procedure described herein below.
Full-length human GPR40 cDNA (Accession Number: NM_005303) was cloned into mammalian expression vector (pReceiver) and was stably transfected into (Chinese Hamster Ovary) CHOK1 cells using Amaxa technology. 2 μg of pReceiver hGPR40 were transfected into 1×10^6 CHOK1 cells in 6 well plates. The cells were split into three 100 mm cell culture plates on the second day and geneticin (800 μg/ml) was added to the cell culture on the third day. The selection medium comprising Ham's F-12 K supplemented with FBS (10%) and geneticin (800 μg/ml) was changed every three days until colonies were formed. The colonies isolated were further purified (single cell cloning) after 14 days to obtain pure isogenic single cell homogenous population of cells expressing the GPR40 receptor protein on the cell surface. GPR40 receptor expression on cell surface was measured by flow cytometry. The in-house transgenic cell line (clone) created was labeled as FFAR1 (GPR40) CHOK1 clone.
FFAR1 (GPR40) CHOK1 cells were suspended in culture medium comprising Ham's F-12 K supplemented with FBS (10%) and geneticin (800 μg/ml). Cells were seeded at a density of 2×10^4 cells per well in a 384 well tissue culture plate and cultured overnight. The medium was discarded and the cells were further resuspended in a stimulation buffer comprising HEPES (10 mM), glucose (5.5 mM), CaCl2 (1 mM), NaCl (150 mM), KCl (4.2 mM), MgCl2 (0.5 mM) and LiCl (50 mM) having a pH of 7.6. The test compounds (representative compounds of Formula (I)) 10 mM stock were prepared in DMSO and subsequently log fold dilution of the test compounds were carried out in the stimulation buffer. Various concentrations of the test compounds and the standard DMSO solution were added to each well. The plates were further incubated at 37° C., 5% CO2 incubator for 1 h. The final concentration of the test compounds in the each well varied from 1 μM to 10 μM. The DMSO concentration in the assay was 0.1% or less. After incubation, lysis reagent and anti-Tb conjugate were added to each well. The intracellular Inositol Phosphate release and accumulation in the test compounds were measured by the binding ability of the anti-Tb conjugate with the inositol phosphate inherently produced in each well as compared with the inositol phosphate coupled to dye d2 added externally to each well. The plates were then read using Perkin Elmer (Envision) plate reader and the fluorescence signal was captured. The EC50 values for the test compounds were calculated from the non linear regression sigmoidal curve graphs plotted between the concentrations of the test compounds and the fluorescence intensity.

T1 sequence (O14842 whole entry): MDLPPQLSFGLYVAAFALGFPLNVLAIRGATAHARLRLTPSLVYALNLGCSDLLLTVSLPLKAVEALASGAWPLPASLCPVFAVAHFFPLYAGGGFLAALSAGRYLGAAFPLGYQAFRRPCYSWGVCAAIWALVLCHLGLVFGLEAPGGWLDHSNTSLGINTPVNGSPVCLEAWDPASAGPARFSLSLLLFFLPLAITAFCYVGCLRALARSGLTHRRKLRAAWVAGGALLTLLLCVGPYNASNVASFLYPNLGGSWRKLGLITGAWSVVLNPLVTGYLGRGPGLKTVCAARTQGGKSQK

As to `O=C(O)CC1(c2ccc(OCc3cccc(-c4ccc(OCC5CCOCC5)cc4Cl)c3)cc2)COC1` [Example 72, 2-(3-(4-((2′-Chloro-4′-((tetrahydro-2H-pyran-4-yl)methoxy)-[1,1′-biphenyl]-3-yl)methoxy)phenyl)oxetan-3-yl)acetic acid], the pEC50 was over 7.00.
The result for `CCCCSc1ccc(-c2cccc(COc3ccc(C4(CC(=O)O)COC4)cc3)c2)cc1` [Example 85, 2-(3-(4-((4′-(Butylthio)-[1,1′-biphenyl]-3-yl)methoxy)phenyl)oxetan-3-yl)acetic acid] reads under 6.30.
The result for `O=C(O)CC1(c2ccc(OCc3cccc(-c4ccc(OCC5(CO)COC5)cc4Cl)c3)cc2)COC1` [Example 66, 2-(3-(4-((2′-Chloro-4′-((3-(hydroxymethyl)oxetan-3-yl)methoxy)-[1,1′-biphenyl]-3-yl)methoxy)phenyl)oxetan-3-yl)acetic acid] reads over 7.00; that for `O=C(O)CC1(c2ccc(OCc3cccc(-c4ccccc4)c3)cc2)COC1` [Example 4, 2-(3-(4-([1,1′-Biphenyl]-3-ylmethoxy)phenyl)oxetan-3-yl)acetic acid], 6.30 to 7.00.
The result for `CS(=O)(=O)CCCOc1ccc(-c2cccc(COc3ccc(C4(CC(=O)O)COC4)cc3)c2)cc1C(F)(F)F` [Example 87, 2-(3-(4-((4′-(3-(Methylsulfonyl)propoxy)-3′-(trifluoromethyl)-[1,1′-biphenyl]-3-yl)methoxy)phenyl)oxetan-3-yl)acetic acid] reads under 6.30; that for `Cc1cc(OCC2CCCO2)cc(C)c1-c1cccc(COc2ccc(C3(CC(=O)O)COC3)cc2)c1` (stereo not drawn) [Example 47, 2-(3-(4-((2′,6′-Dimethyl-4′-((tetrahydrofuran-2-yl)methoxy)-[1,1′-biphenyl]-3-yl)methoxy)phenyl)oxetan-3-yl)acetic acid], over 7.00.
In the case of `Cc1cc(OCC2(CO)COC2)cc(C)c1-c1cccc(COc2ccc(C3(CC(=O)O)COC3)cc2)c1` [Example 55, 2-(3-(4-((4′-((3-(Hydroxymethyl)oxetan-3-yl)methoxy)-2′,6′-dimethyl-[1,1′-biphenyl]-3-yl)methoxy)phenyl)oxetan-3-yl)acetic acid], the pEC50 is over 7.00.
The result for `Cc1cc(OCC2(C)COC2)cc(C)c1-c1cccc(COc2ccc(C3(CC(=O)O)COC3)cc2)c1` [Example 51, 2-(3-(4-((2′,6′-Dimethyl-4′-((3-methyloxetan-3-yl)methoxy)-[1,1′-biphenyl]-3-yl)methoxy)phenyl)oxetan-3-yl)acetic acid] reads under 6.30; that for `O=C(O)CC1(c2ccc(OCc3cccc(-c4ccc(OCC5CCS(=O)(=O)CC5)cc4Cl)c3)cc2)COC1` [Example 70, 2-(3-(4-((2′-Chloro-4′-((1,1-dioxidotetrahydro-2H-thiopyran-4-yl)methoxy)-[1,1′-biphenyl]-3-yl)methoxy)phenyl)oxetan-3-yl)acetic acid], over 7.00; that for `Cc1cc(OC2CCS(=O)(=O)CC2)cc(C)c1-c1cccc(COc2ccc(C3(CC(=O)O)COC3)cc2)c1` [Example 57, 2-(3-(4-((4′-((1,1-Dioxidotetrahydro-2H-thiopyran-4-yl)oxy)-2′,6′-dimethyl-[1,1′-biphenyl]-3-yl)methoxy)phenyl)oxetan-3-yl)acetic acid], 6.30 to 7.00.
With `O=C(O)CC1(c2ccc(OCc3ccc(-c4ccccc4)cc3)cc2)COC1` [Example 8, 2-(3-(4-([1,1′-Biphenyl]-4-ylmethoxy)phenyl)oxetan-3-yl)acetic acid], the pEC50 is 6.30 to 7.00.
Regarding `O=C(O)CC1(c2ccc(OCc3cccc(-c4ccc(OCC5CCS(=O)(=O)C5)cc4Cl)c3)cc2)COC1` (stereo not drawn) [Example 68, 2-(3-(4-((2′-Chloro-4′-((1,1-dioxidotetrahydrothiophen-3-yl)methoxy)-[1,1′-biphenyl]-3-yl)methoxy)phenyl)oxetan-3-yl)acetic acid], the pEC50 is over 7.00.
The result for `COc1cncc(-c2cccc(COc3ccc(C4(CC(=O)O)COC4)cc3)c2)c1` [Example 106, 2-(3-(4-((3-(5-Methoxypyridin-3-yl)benzyl)oxy)phenyl)oxetan-3-yl)acetic acid] reads under 6.30.
The result for `N#Cc1ccccc1-c1ccc(COc2ccc(C3(CC(=O)O)COC3)cc2)cc1` [Example 6, 2-(3-(4-((2′-Cyano-[1,1′-biphenyl]-4-yl)methoxy)phenyl)oxetan-3-yl)acetic acid] reads 6.30 to 7.00; that for `COc1ccc(COc2ccc(C3(CC(=O)O)COC3)cc2)cc1C(F)(F)F` [Example 22], under 6.30; that for `CS(=O)(=O)CCCOc1ccc(-c2cccc(COc3ccc(C4(CC(=O)O)COC4)cc3)c2)c(Cl)c1` [Example 62, 2-(3-(4-((2′-Chloro-4′-(3-(methylsulfonyl)propoxy)-[1,1′-biphenyl]-3-yl)methoxy)phenyl)oxetan-3-yl)acetic acid], over 7.00.
The result for `Cc1cc(OCCCS(C)(=O)=O)cc(C)c1-c1cccc(COc2ccc(C3(CC(=O)O)COC3)cc2)c1` [Example 10, 2-(3-(4-((2′,6′-Dimethyl-4′-(3-(methylsulfonyl)propoxy)-[1,1′-biphenyl]-3-yl)methoxy)phenyl)oxetan-3-yl)acetic acid] reads over 7.00; that for `Cc1ccc(C(F)(F)F)cc1COc1ccc(C2(CC(=O)O)COC2)cc1` [Example 24], under 6.30.
`COc1cc(-c2cccc(COc3ccc(C4(CC(=O)O)COC4)cc3)c2)ccc1OCCCS(C)(=O)=O` [Example 81, 2-(3-(4-((3′-Methoxy-4′-(3-(methylsulfonyl)propoxy)-[1,1′-biphenyl]-3-yl)methoxy)phenyl)oxetan-3-yl)acetic acid]: the pEC50 is under 6.30.
The same measure for `Cc1cc(OCC2CCS(=O)(=O)CC2)cc(C)c1-c1cccc(COc2ccc(C3(CC(=O)O)COC3)cc2)c1` [Example 45, 2-(3-(4-((4′-((1,1-Dioxidotetrahydro-2H-thiopyran-4-yl)methoxy)-2′,6′-dimethyl-[1,1′-biphenyl]-3-yl)methoxy)phenyl)oxetan-3-yl)acetic acid]: over 7.00; for `CSc1ccc(-c2cccc(COc3ccc(C4(CC(=O)O)COC4)cc3)c2)cc1` [Example 83, 2-(3-(4-((4′-(Methylthio)-[1,1′-biphenyl]-3-yl)methoxy)phenyl)oxetan-3-yl)acetic acid]: 6.30 to 7.00.
Turning to `Cc1ccc(COc2ccc(C3(CC(=O)O)COC3)cc2)cc1C(F)(F)F` [Example 28, 2-(3-(4-((4-Methyl-3-(trifluoromethyl)benzyl)oxy)phenyl)oxetan-3-yl)acetic acid], the pEC50 was 6.30 to 7.00.
With `COc1cc(COc2ccc(C3(CC(=O)O)COC3)cc2)ccc1C(F)(F)F` [Example 30, 2-(3-(4-((3-Methoxy-4-(trifluoromethyl)benzyl)oxy)phenyl)oxetan-3-yl)acetic acid], the pEC50 is under 6.30.
The result for `Cc1cc(OCC2CCS(=O)(=O)C2)cc(C)c1-c1cccc(COc2ccc(C3(CC(=O)O)COC3)cc2)c1` (stereo not drawn) [Example 53, 2-(3-(4-((4′-((1,1-Dioxidotetrahydrothiophen-3-yl)methoxy)-2′,6′-dimethyl-[1,1′-biphenyl]-3-yl)methoxy)phenyl)oxetan-3-yl)acetic acid] reads over 7.00; that for `CC(=O)N1CC(CC(=O)O)(c2ccc(OCc3cccc(-c4c(C)cc(OCCCS(C)(=O)=O)cc4C)c3)cc2)C1` [Example 96, 2-(1-Acetyl-3-(4-((2′,6′-dimethyl-4′-(3-(methylsulfonyl)propoxy)-[1,1′-biphenyl]-3-yl)methoxy)phenyl)azetidin-3-yl)acetic acid], under 6.30.
The result for `Cc1cc(OC2CCCC2)cc(C)c1-c1cccc(COc2ccc(C3(CC(=O)O)COC3)cc2)c1` [Example 59, 2-(3-(4-((4′-(Cyclopentyloxy)-2′,6′-dimethyl-[1,1′-biphenyl]-3-yl)methoxy)phenyl)oxetan-3-yl)acetic acid] reads under 6.30.
The result for `Cc1cc(OCCCS(C)(=O)=O)cc(C)c1-c1cccc(COc2ccc(C3(CC(=O)O)CN(S(C)(=O)=O)C3)cc2)c1` [Example 94, 2-(3-(4-((2′,6′-Dimethyl-4′-(3-(methylsulfonyl)propoxy)-[1,1′-biphenyl]-3-yl)methoxy)phenyl)-1-(methylsulfonyl)azetidin-3-yl)acetic acid] reads under 6.30.
